Among the data in patent US20190211002A1, “NOVEL TRIAZOLE DERIVATIVES” (Bayer CropScience Aktiengesellschaft, priority 2016, published 2019) are Efficacy in %, pest or weed control and chromatographic logP values, retold here.

For series [1], the system named is Sphaerotheca fuliginea. Nature of the series: Example F: in vivo preventive test on Sphaerotheca (cucumbers), comparison vs. known phenoxy-phenyl compounds. The note with it: rate of application 10 ppm, evaluated 7 days after inoculation. As to the method: • Solvent: 24.5 parts by weight of acetone • 24.5 parts by weight of dimethylacetamide • Emulsifier: 1 part by weight of alkylaryl polyglycol ether
To produce a suitable preparation of active compound, 1 part by weight of active compound is mixed with the above stated amounts of solvent and emulsifier, and the concentrate is diluted with water to the desired concentration.
(§1) To test for preventive activity, young plants are sprayed with the preparation of active compound at the stated rate of application. After the spray coating has dried on, the plants are inoculated with an aqueous spore suspension of Sphaerotheca fuliginea. The plants are then placed in a greenhouse at approximately 23° C. and a relative atmospheric humidity of approximately 70%.
The test is evaluated 7 days after the inoculation.

The subject of series [2] is Sphaerotheca fuliginea. Nature of the series: Example C: in vivo preventive test on Sphaerotheca fuliginea (powdery mildew on cucurbits). Particulars: Podosphaera fuliginea, 360 h; 500 ppm of active ingredient; gherkin; preventive spray; evaluated 15 days after inoculation; read-out: efficacy. As to the method: The test is evaluated 15 days after the inoculation.
A further series deals with Septoria tritici. Nature of the series: Example G: in vivo 5 days preventive Septoria tritici test (wheat), comparison vs. WO-A 2010/146116. Particulars: inoculated 5 days after spraying, evaluated 21 days after inoculation. As to the method: • Solvent: 49 parts by weight of N,N-dimethylacetamide • Emulsifier: 1 part by weight of alkylaryl polyglycol ether To produce a suitable preparation of active compound, 1 part by weight of active compound or active compound combination is mixed with the stated amounts of solvent and emulsifier, and the concentrate is diluted with water to the desired concentration. To test for preventive and long-lasting activity, young plants are sprayed with a preparation of active compound or active compound combination at the stated rate of application. After the spray coating has been dried, the plants are placed in the greenhouse at a temperature of approximately 15° C. and a relative atmospheric humidity of approximately 80%. 5 days later the plants are sprayed with a spore suspension of Septoria tritici. The plants remain for 48 hours in an incubation cabinet at approximately 20° C. and a relative atmospheric humidity of approximately 100% and afterwards for 60 hours at approximately 15° C. in a translucent incubation cabinet at a relative atmospheric humidity of approximately 100%. Then the plants are placed in the greenhouse at a temperature of approximately 15° C. and a relative atmospheric humidity of approximately 80%. The test is evaluated 21 days after the inoculation.

The subject of series [3] is Blumeria graminis f sp. hordei. Nature of the series: Example E: in vivo preventive Blumeria test (barley). The note with it: 168 h, 500 ppm of active ingredient, preventive spray, evaluated 7 days after inoculation, read-out: efficacy. On the procedure: • Solvent: 49 parts by weight of N,N-dimethylacetamide • Emulsifier: 1 part by weight of alkylaryl polyglycol ether To produce a suitable preparation of active compound, 1 part by weight of active compound or active compound combination was mixed with the stated amounts of solvent and emulsifier, and the concentrate was diluted with water to the desired concentration. To test for preventive activity, young plants were sprayed with the preparation of active compound or active compound combination at the stated rate of application. After the spray coating had been dried, the plants were dusted with spores of Blumeria graminis f sp. hordei. The plants were placed in the greenhouse at a temperature of approximately 18° C. and a relative atmospheric humidity of approximately 80% to promote the development of mildew pustules. The test was evaluated 7 days after the inoculation.

The nature of series [4]: LogP by HPLC on reversed phase columns (EEC directive 79/831 Annex V.A8). The note with it: reversed phase HPLC column, method [a]: LC-UV, acidic range, 0.1% formic acid in water and acetonitrile as eluent. The format is physicochemical. On the procedure:
Measurement of LogP values was performed according to EEC directive 79/831 Annex V.A8 by HPLC (High Performance Liquid Chromatography) on reversed phase columns with the following methods: • ^[a] […] Lambda-max-values were determined using UV-spectra from 200 nm to 400 nm and the peak values of the chromatographic signals.

The next series deals with Puccinia recondita. Nature of the series: Example A: in vivo preventive test on Puccinia recondita (brown rust on wheat). Particulars: 264 h, 500 ppm of active ingredient, preventive spray, evaluated 11 days after inoculation, read-out: efficacy. On the procedure:
(§2) The test is evaluated 11 days after the inoculation.

For a further series, the system named is Uromyces appendiculatus. As to the kind of experiment: Example D: in vivo preventive test on Uromyces appendiculatus (bean rust). Particulars: 264 h, 500 ppm of active ingredient, preventive spray, evaluated 11 days after inoculation, read-out: efficacy. As to the method: as §2
Series [5] concerns Sphaerotheca fuliginea. Nature of the series: Example H: in vivo preventive test on Sphaerotheca (cucumbers), comparison vs. WO-A 2010/146116. Particulars: evaluated 7 days after inoculation. On the procedure:
as §1, with “To produce a suitable preparation of active compound, 1 part by weight of active compound is mixed with the stated amounts of solvent and emulsifier, and the concentrate is diluted with water to the desired concentration. To” for “To”, “70%. The test is evaluated 7 days after the inoculation.” for “70%.”

Broadly, the chromatographic logP is a lipophilicity value derived from retention on a column. A low value points to lower lipophilicity. In the case of `FC(F)(F)c1nc(Oc2ccc(Cl)cc2)ccc1C1(Cn2cncn2)OCCO1` [I.04, 6-(4-chlorophenoxy)-3-[2-(1,2,4-triazol-1-ylmethyl)-1,3-dioxolan-2-yl]-2-(trifluoromethyl)-pyridine], the Efficacy in % in the series on Sphaerotheca fuliginea [1] stood at 73%; with Septoria tritici (rate of application 100 ppm), 86%; in the series with Septoria tritici (rate of application 500 ppm), 100%; in the series with Sphaerotheca fuliginea [5] (rate of application 10 ppm), 73%; in the series with Sphaerotheca fuliginea [5] (rate of application 100 ppm), 100%. For the same compound, the pest or weed control at 500 ppm (with Sphaerotheca fuliginea [2]; in series [3]; with Puccinia recondita; in the series with Uromyces appendiculatus) was 90 to 100% throughout. In addition, the chromatographic logP in series [4] was 3.25.

As to `FC(F)(F)c1ccc(Oc2ccc(C3(Cn4cncn4)OCCO3)c(C(F)(F)F)n2)cc1` [I.14, 3-[2-(1,2,4-triazol-1-ylmethyl)-1,3-dioxolan-2-yl]-2-(trifluoromethyl)-6-[4-(trifluoromethyl)phenoxy]pyridine], the pest or weed control at 500 ppm (with Sphaerotheca fuliginea [2]; in series [3]; in the series on Puccinia recondita; in the series on Uromyces appendiculatus) was 90 to 100% in each case. The Efficacy in % with Septoria tritici (rate of application 100 ppm) was determined as 100%; in the series with Septoria tritici (rate of application 500 ppm), 100%; with Sphaerotheca fuliginea [5] (rate of application 10 ppm), 75%; in the series with Sphaerotheca fuliginea [5] (rate of application 100 ppm) it was 100%. In series [4], the chromatographic logP came out at 3.29.

As to `CC(O)(Cn1cncn1)c1ccc(Oc2ccc(Cl)cc2)cc1C(F)(F)F` (centres unmarked) [reference compound], the Efficacy in % with Sphaerotheca fuliginea [1] was 30%.
